{"source": "patent US4713367A", "about": "“Retro-inverso analogs of the bradykinin potentiating peptide BPP5a” (Enichem S.p.A., priority 1986, dated 1987)", "key": {"[1]": {"test_system": "angiotensin converting enzyme", "assay": "Degradation in vitro by the angiotensin converting enzyme", "format": "in vitro ADME", "details": "in the presence of the angiotensin converting enzyme"}, "[2]": {"target": "T1, angiotensin converting enzyme (Oryctolagus cuniculus, UniProt P12822)", "T1 construct": "The enzyme employed in this test has been isolated from rabbit lungs; from tissue; host or cells: rabbit lungs", "T1 sequence (P12822 34-1310)": "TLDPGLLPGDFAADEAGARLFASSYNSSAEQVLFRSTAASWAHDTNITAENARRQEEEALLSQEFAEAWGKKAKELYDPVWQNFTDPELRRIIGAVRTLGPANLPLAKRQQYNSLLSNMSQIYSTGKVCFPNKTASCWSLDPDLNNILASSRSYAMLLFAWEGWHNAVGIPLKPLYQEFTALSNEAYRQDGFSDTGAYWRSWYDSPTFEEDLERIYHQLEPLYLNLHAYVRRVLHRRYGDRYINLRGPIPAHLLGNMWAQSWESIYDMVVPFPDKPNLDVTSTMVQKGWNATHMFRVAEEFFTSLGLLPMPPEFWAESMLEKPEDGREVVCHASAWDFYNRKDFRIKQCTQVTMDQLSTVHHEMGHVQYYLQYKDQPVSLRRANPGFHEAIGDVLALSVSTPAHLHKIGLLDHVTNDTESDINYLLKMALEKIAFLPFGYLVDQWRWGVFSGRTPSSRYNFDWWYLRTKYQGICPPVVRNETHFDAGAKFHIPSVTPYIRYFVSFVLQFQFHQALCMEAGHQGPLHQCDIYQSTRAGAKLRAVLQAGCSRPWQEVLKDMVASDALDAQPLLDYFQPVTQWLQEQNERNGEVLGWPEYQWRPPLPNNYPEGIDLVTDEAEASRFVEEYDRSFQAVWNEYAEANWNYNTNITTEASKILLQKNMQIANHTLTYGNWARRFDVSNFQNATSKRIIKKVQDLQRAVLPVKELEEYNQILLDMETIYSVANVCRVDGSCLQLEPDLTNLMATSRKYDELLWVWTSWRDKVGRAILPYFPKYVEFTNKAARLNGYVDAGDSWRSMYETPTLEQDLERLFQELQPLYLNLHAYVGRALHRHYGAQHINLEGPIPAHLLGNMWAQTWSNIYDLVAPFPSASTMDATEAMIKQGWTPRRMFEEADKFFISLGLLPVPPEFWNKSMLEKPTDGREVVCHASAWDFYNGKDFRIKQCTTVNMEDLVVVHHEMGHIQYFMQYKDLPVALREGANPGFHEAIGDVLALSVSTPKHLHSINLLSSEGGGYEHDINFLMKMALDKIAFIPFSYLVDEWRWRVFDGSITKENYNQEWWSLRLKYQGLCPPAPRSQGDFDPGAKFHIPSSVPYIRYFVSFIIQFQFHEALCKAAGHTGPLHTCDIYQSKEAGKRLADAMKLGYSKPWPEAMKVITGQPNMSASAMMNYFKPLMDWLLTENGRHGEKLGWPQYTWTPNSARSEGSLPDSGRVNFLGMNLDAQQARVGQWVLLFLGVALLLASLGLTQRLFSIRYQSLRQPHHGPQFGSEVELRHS", "assay": "Inhibition of the angiotensin converting enzyme (IC50)", "format": "biochemical, rabbit", "details": "for IC50: enzyme isolated from rabbit lungs (Cushman and Cheung)", "excerpt": "In particular, comparative experiments carried out […] in order to evaluate the ACE inhibitory activity of the compounds of the present invention gave the results reported in following table I (IC50 represents the concentration of the test compound, in μM, which inhibits the angiotensin converting enzyme by 50%. The enzyme employed in this test has been isolated from rabbit lungs according to the method by Cushman and Cheung described in Biochem. Pharmacol. 20, 1637, (1971))."}, "[3]": {"test_system": "bradykinin", "details": "bradykinin injected directly into the coronary arteries; cited from earlier work"}, "[4]": {"details": "induced experimentally in rats; cited from earlier work"}, "[5]": {"test_system": "angiotensin converting enzyme", "details": "15 minutes of preincubation; cited from earlier work"}, "[6]": {"test_system": "angiotensin I", "details": "infused directly into the brain; cited from earlier work"}, "[7]": {"assay": "Hypotensive effect in anesthetized normotensive rats", "format": "in vivo, rat", "details": "injected intravenously at 0.18 mg/Kg", "description": "In vivo experiments carried out in anesthetized normotensive rats confirmed a hypotensive effect of the compounds of the invention as compound (a), when injected intravenously at a dosage of 0.18 mg/Kg, produced a blood pressure decrease of about 20 mmHg."}}, "note": "*1 amine or outer side, *2 acyl side, *3 side chain or, on linkers, in order; H or OH if unused. Where a SMILES comes first, the peptide text is derived from it. [ ]: non-standard residue; d: D form. X1 = O=C([C@@H]1C[C@H](Sc2ccccc2)CN1[*:1])[*:2]; pGlu = O=C1CC[C@@H](C(=O)O)N1", "data": [{"smiles": "C[C@H](C(=O)N[C@H](Cc1ccccc1)NC(=O)[C@H](CCCCN)NC(=O)[C@@H]1CCC(=O)N1)C(=O)N1C[C@@H](Sc2ccccc2)C[C@H]1C(=O)O", "note": "[(b), Glp--Lys--gPhe--(R)mAla--Pro(S--Ph)--OH]", "values": [{"measurement": "degradation by / resistance towards cleavage by ACE", "setting": "[1]", "value": "complete resistance"}]}, {"smiles": "C[C@H](NC(=O)[C@H](Cc1ccccc1)NC(=O)[C@H](CCCCN)NC(=O)[C@@H]1CCC(=O)N1)C(=O)N1CCC[C@H]1C(=O)O", "note": "[(c), Glp--Lys--Phe--Ala--Pro--OH] ([pGlu]KFAP-OH)", "values": [{"measurement": "IC50", "setting": "[2]", "value": 100, "unit": "nM"}, {"measurement": "degradation by / resistance towards cleavage by ACE", "setting": "[1]", "value": "quickly degraded"}]}, {"smiles": "C[C@H](NC(=O)[C@H](Cc1c[nH]c2ccccc12)NC(=O)[C@H](CCCCN)NC(=O)[C@@H]1CCC(=O)N1)C(=O)N1CCC[C@H]1C(=O)O", "note": "[(d), Glp--Lys--Trp--Ala--Pro--OH] ([pGlu]KWAP-OH)", "values": [{"measurement": "in vivo activity of bradykinin", "setting": "[3]", "value": "potentiates"}, {"measurement": "IC50", "setting": "[2]", "value": 100, "unit": "nM"}, {"measurement": "degradation by / resistance towards cleavage by ACE", "setting": "[1]", "value": "quickly degraded"}, {"measurement": "control of reno-vascular hypertension", "setting": "[4]", "value": "capable of controlling"}, {"measurement": "inhibitory activity after preincubation with the angiotensin converting enzyme", "setting": "[5]", "value": "complete loss of inhibitory activity"}, {"measurement": "CNS-mediated hypertensive and tachycardic action of angiotensin I", "setting": "[6]", "value": "inhibits"}]}, {"smiles": "C[C@H](NC(=O)[C@H](Cc1ccccc1)NC(=O)[C@H](CCCCN)NC(=O)[C@@H]1CCC(=O)N1)C(=O)N1C[C@@H](Sc2ccccc2)C[C@H]1C(=O)O", "note": "[(e), Glp--Lys--Phe--Ala--Pro(S--Ph)--OH] ([pGlu]KFA[X1]-OH)", "values": [{"measurement": "IC50", "setting": "[2]", "value": 60, "unit": "nM"}, {"measurement": "degradation by / resistance towards cleavage by ACE", "setting": "[1]", "value": "quickly degraded"}]}, {"smiles": "C[C@@H](C(=O)N[C@H](Cc1ccccc1)NC(=O)[C@H](CCCCN)NC(=O)[C@@H]1CCC(=O)N1)C(=O)N1CCC[C@H]1C(=O)O", "note": "[(f), Glp--Lys--gPhe--(S)mAla--Pro--OH]", "values": [{"measurement": "degradation by / resistance towards cleavage by ACE", "setting": "[1]", "value": "complete resistance"}]}, {"smiles": "C[C@H](C(=O)N[C@H](Cc1ccccc1)NC(=O)[C@H](CCCCN)NC(=O)[C@@H]1CCC(=O)N1)C(=O)N1CCC[C@H]1C(=O)O", "note": "[(g), Glp--Lys--gPhe--(R)mAla--Pro--OH]", "values": [{"measurement": "degradation by / resistance towards cleavage by ACE", "setting": "[1]", "value": "complete resistance"}]}, {"smiles": "CC(C(=O)N[C@H](Cc1ccccc1)NC(=O)[C@H](CCCCN)NC(=O)[C@@H]1CCC(=O)N1)C(=O)N1CCC[C@H]1C(=O)O", "note": "(stereo partly drawn) [Glp-Lys-gPhe-mAla-Pro-OH]", "values": [{"measurement": "IC50 relative to that of the natural product (BPP5a) or the uninverted peptide Glp-Lys-Phe-Ala-Pro-OH", "setting": "[2]; in vitro", "value": "more than 1000 times higher"}]}, {"smiles": "C[C@@H](C(=O)N[C@H](Cc1ccccc1)NC(=O)[C@H](CCCCN)NC(=O)[C@@H]1CCC(=O)N1)C(=O)N1C[C@@H](Sc2ccccc2)C[C@H]1C(=O)O", "note": "[compound (a), Glp--Lys--gPhe--(S)mAla--Pro(S--Ph)--OH]", "values": [{"measurement": "degradation by / resistance towards cleavage by ACE", "setting": "[1]", "value": "complete resistance"}, {"measurement": "blood pressure decrease", "setting": "[7]", "value": "about 20 mmHg"}]}]}
